From patent EP2131831B1, “[…] ACIDS AND POLY-L-LYSINE FOR COMBATING […]-ORGANISMS” (priority 2007, dated 2008)

How the values were obtained:
[1] = system: Escherichia coli ou Staphylococcus aureus; assay: Visual comparison of bactericidal activity, free fatty acids vs conjugates; type: cell-based; set-up: key to Activité bactéricide sur Escherichia coli ou Staphylococcus aureus de l'acide gras seul: 0: pas d'activité, culture négative; +: correspond à 10^3 colonies; ++: correspond à 10^4 colonies; +++: correspond à 10^6 colonies; ++++: correspond à 10^7 colonies; conditions: visual scale; for Activité bactéricide sur Escherichia coli ou Staphylococcus aureus du conjugué: conjugate of the named fatty acid according to the invention; for Activité bactéricide sur Escherichia coli ou Staphylococcus aureus de l'acide gras seul: free, unbound fatty acid
Excerpt: Les résultats sont évalués visuellement selon l'échelle suivante : • 0 pas d'activité, culture négative • + correspond à 10^3 colonies • ++ correspond à 10^4 colonies • +++ correspond à 10^6 colonies, et • ++++ correspond à 10^7 colonies.

Klebsiella oxytoca = conditions: fatty acid on poly-L-Lysine 5×10^-3M, 50µl, 16 h at 37°
Excerpt: (§1) Les différents essais ont été réalisés selon le mode opératoire décrit en suivant. Les effets anti-bactéricides et anti-fongiques des solutions testées ont été évalués sur des boîtes contenant des milieux de cultures appropriés à la croissance : • gélose chocolat haemophilus pour la culture de Neisseria, • gélose BCP pour les germes peu exigeants, • gélose Mueller Hinton 2 (MH2-F) pour la majorité des souches bactériennes sauf Neisseria et les streptocoques, • gélose columbia ANC (COL ANC-F) pour les streptocoques, • gélose Sabouraud gentamicine chloramphénicol (SAB GENTA CHL-F) pour les candidas albicans et les levures en général, et • milieu Leowenstein, Coletsos pour Mycobacterium tuberculosis.
(§2) Les boîtes sont recouvertes par 1ml de solution bactérienne ou mycosique à la concentration de 0,5 à 1 de Mac Farland (lecture au densitomètre) soit 1,5×10^8 bactéries/ml.
(§3) La boîte est ensuite séchée 15 minutes à 37°, et on applique 2 gouttes (50µl) de chaque solution à tester.
(§4) La boîte de culture est recouverte après 16 heures d'incubation à 37°.
(§5) Chaque plage de lyse due à l'activité anti-bactérienne ou anti-fongique des conjugués est mesurée. La lecture de l'effet bactéricide ou antifongique est mesurée en cm^2.

Candida albicans = conditions: fatty acid on poly-L-Lysine 5×10^-3M, 50µl, 16 h at 37°
Excerpt: as §1, §2, §3, §4, §5

Morganella Morganii = conditions: fatty acid on poly-L-Lysine 5×10^-3M, 50µl, 16 h at 37°
Excerpt: as §1, §2, §3, §4, §5

Enterobacter Hafniae = conditions: fatty acid on poly-L-Lysine 5×10^-3M, 50µl, 16 h at 37°
Excerpt: as §1, §2, §3, §4, §5

Proteus Mirabilis = conditions: fatty acid on poly-L-Lysine 5×10^-3M, 50µl, 16 h at 37°
Excerpt: as §1, §2, §3, §4, §5

Streptocoque B = conditions: fatty acid on poly-L-Lysine 5×10^-3M, 50µl, 16 h at 37°
Excerpt: as §1, §2, §3, §4, §5

Streptocoque D = conditions: fatty acid on poly-L-Lysine 5×10^-3M, 50µl, 16 h at 37°
Excerpt: as §1, §2, §3, §4, §5

Staphylococcus aureus = assay: Lysis zone on agar plate; type: cell-based; conditions: fatty acid on poly-L-Lysine 5×10^-3M, 50µl, 16 h at 37°
Escherichia coli = assay: Lysis zone on agar plate; type: cell-based; conditions: fatty acid on poly-L-Lysine 5×10^-3M, 50µl, 16 h at 37°
Citrobacter koserii = conditions: Citro bacter koserii; fatty acid on poly-L-Lysine 5×10^-3M; 50µl; 16 h at 37°
Nesseria = conditions: fatty acid on poly-L-Lysine 5×10^-3M, 50µl, 16 h at 37°
[2] = system: souche multirésistante de staphylococcus epidermidis; conditions: each component's concentration within the combined solution capryl-poly-L-Lysine-lauryl + pyruvate-poly-L-Lysine
Pseudomonas aeruginosa = assay: Lysis zone on agar plate; type: cell-based; conditions: fatty acid on poly-L-Lysine 5×10^-3M, 50µl, 16 h at 37°

Molecule: CCCCCCCCCC(=O)O [Acide Caprique]
- Activité bactéricide sur Escherichia coli ou Staphylococcus aureus du conjugué [1]: +++ (correspond à 10^6 colonies)
- Activité bactéricide sur Escherichia coli ou Staphylococcus aureus de l'acide gras seul [1]: ++++ (correspond à 10^7 colonies)

Molecule: CCCCCC(=O)O [Acide Caproïque]
- Activité bactéricide sur Escherichia coli ou Staphylococcus aureus du conjugué [1]: +++ (correspond à 10^6 colonies)
- Activité bactéricide sur Escherichia coli ou Staphylococcus aureus de l'acide gras seul [1]: ++ (correspond à 10^4 colonies)

Molecule: CCCCCCCCCCCC(=O)O [Acide Laurique]
- Activité bactéricide sur Escherichia coli ou Staphylococcus aureus du conjugué [1]: ++ (correspond à 10^4 colonies)
- Activité bactéricide sur Escherichia coli ou Staphylococcus aureus de l'acide gras seul [1]: ++++ (correspond à 10^7 colonies)

Molecule: CCCCCCCCCCCCCC(=O)O [Acide Myristique]
- Activité bactéricide sur Escherichia coli ou Staphylococcus aureus du conjugué [1]: + (correspond à 10^3 colonies)
- Activité bactéricide sur Escherichia coli ou Staphylococcus aureus de l'acide gras seul [1]: + (correspond à 10^3 colonies)

Molecule: CCCCCCCC/C=C\CCCCCCCC(=O)O [Acide Oléique]
- Activité bactéricide sur Escherichia coli ou Staphylococcus aureus du conjugué [1]: + (correspond à 10^3 colonies)
- Activité bactéricide sur Escherichia coli ou Staphylococcus aureus de l'acide gras seul [1]: + (correspond à 10^3 colonies)

Molecule: CCCCCCCCCCCCCCCC(=O)O [Acide Palmitique]
- Activité bactéricide sur Escherichia coli ou Staphylococcus aureus du conjugué [1]: + (correspond à 10^3 colonies)
- Activité bactéricide sur Escherichia coli ou Staphylococcus aureus de l'acide gras seul [1]: 0

Molecule: CC(=O)O [C2 = acetate]
- Activité bactéricide sur Escherichia coli ou Staphylococcus aureus du conjugué [1]: +++ (correspond à 10^6 colonies)
- Activité bactéricide sur Escherichia coli ou Staphylococcus aureus de l'acide gras seul [1]: 0

Molecule: CCCCC(=O)O [C5 = acide valérique, acide valérique]
- Activité bactéricide sur Escherichia coli ou Staphylococcus aureus du conjugué [1]: +++ (correspond à 10^6 colonies)
- Activité bactéricide sur Escherichia coli ou Staphylococcus aureus de l'acide gras seul [1]: 0

Molecule: Acide Caprylique
- Activité bactéricide sur Escherichia coli ou Staphylococcus aureus du conjugué [1]: +++ (correspond à 10^6 colonies)
- Activité bactéricide sur Escherichia coli ou Staphylococcus aureus de l'acide gras seul [1]: +++ (correspond à 10^6 colonies)

Molecule: Acide Palmitoléique
- Activité bactéricide sur Escherichia coli ou Staphylococcus aureus du conjugué [1]: +++ (correspond à 10^6 colonies)
- Activité bactéricide sur Escherichia coli ou Staphylococcus aureus de l'acide gras seul [1]: ++ (correspond à 10^4 colonies)

Molecule: Farnesyl-cystéine
- Activité bactéricide sur Escherichia coli ou Staphylococcus aureus du conjugué [1]: ++ (correspond à 10^4 colonies)
- Activité bactéricide sur Escherichia coli ou Staphylococcus aureus de l'acide gras seul [1]: 0

Molecule: acétyl-poly-L-Lysine [Acétyl- poly-L-Lysine]
- plage de lyse (Alcalescens Diaspar): 1,4cm^2
- plage de lyse (Klebsiella oxytoca): 3,14 cm^2
- plage de lyse (Candida albicans): 1,97cm^2
- plage de lyse (Morganella Morganii): 0 cm^2
- plage de lyse (Enterobacter Hafniae): 2,71 cm^2
- plage de lyse (Proteus Mirabilis): 0 cm^2
- plage de lyse (Streptocoque B): 3,14 cm^2 colonies
- plage de lyse (Streptocoque D): 4,15cm^2
- plage de lyse (Staphylococcus aureus): 1,68 cm^2
- plage de lyse (Escherichia coli): 0 cm^2
- plage de lyse (Citrobacter koserii): 1,77 cm^z cm^2
- plage de lyse (Nesseria): 2,27cm^2

Molecule: butyrate [C4 = butyrate]
- Activité bactéricide sur Escherichia coli ou Staphylococcus aureus du conjugué [1]: +++ (correspond à 10^6 colonies)
- Activité bactéricide sur Escherichia coli ou Staphylococcus aureus de l'acide gras seul [1]: 0

Molecule: butyryl-poly-L-Lysine [Butyryl- poly-L-Lysine]
- plage de lyse (Alcalescens Diaspar): 0,85 cm^2
- plage de lyse (Klebsiella oxytoca): 0 cm^2
- plage de lyse (Candida albicans): 2,3 cm^2
- plage de lyse (Morganella Morganii): 0 cm^2
- plage de lyse (Enterobacter Hafniae): 2,03 cm^2
- plage de lyse (Proteus Mirabilis): 0 cm^2
- plage de lyse (Streptocoque B): 1,33 cm^2 qqls colonies
- plage de lyse (Streptocoque D): 0 cm^2
- plage de lyse (Staphylococcus aureus): 1,82 cm^2
- plage de lyse (Escherichia coli): 2,65 cm^2
- plage de lyse (Citrobacter koserii): 1,77 cm^2
- plage de lyse (Nesseria): 0,78 cm^2

Molecule: capryl-poly-L-Lysine-lauryl [capryl-poly-Lysine-lauryl]
- concentration minimale inhibitrice [2]: < 1,25×10^5 M

Molecule: lactyl-Poly-L-Lysine
- plage de lyse (Alcalescens Diaspar): 1,53cm^2
- plage de lyse (Klebsiella oxytoca): 0 cm^2
- plage de lyse (Candida albicans): 1,05cm^2
- plage de lyse (Morganella Morganii): 0 cm^2
- plage de lyse (Enterobacter Hafniae): 1,44cm^2
- plage de lyse (Proteus Mirabilis): 0 cm^2
- plage de lyse (Streptocoque B): peu sensible
- plage de lyse (Streptocoque D): 2,01 cm^2
- plage de lyse (Staphylococcus aureus): 1,82 cm^2
- plage de lyse (Escherichia coli): 1,92 cm^2
- plage de lyse (Citrobacter koserii): 1,13 cm^2
- plage de lyse (Nesseria): 1,65cm^2
- plage de lyse (Pseudomonas aeruginosa): 2,34 cm^2

Molecule: propionate [C3 = propionate]
- Activité bactéricide sur Escherichia coli ou Staphylococcus aureus du conjugué [1]: +++ (correspond à 10^6 colonies)
- Activité bactéricide sur Escherichia coli ou Staphylococcus aureus de l'acide gras seul [1]: 0

Molecule: propionyl-poly-L-Lysine [Propionylpoy-L-lysine]
- plage de lyse (Alcalescens Diaspar): 1,13cm^2 inhibition partielle
- plage de lyse (Klebsiella oxytoca): 0 cm^2
- plage de lyse (Candida albicans): 2,13cm^2
- plage de lyse (Morganella Morganii): 0 cm^2
- plage de lyse (Enterobacter Hafniae): 1,12 cm^2
- plage de lyse (Proteus Mirabilis): 0 cm^2
- plage de lyse (Streptocoque B): 0 cm^2
- plage de lyse (Streptocoque D): 0 cm^2
- plage de lyse (Staphylococcus aureus): 2,3 cm^2
- plage de lyse (Citrobacter koserii): 0 cm^2
- plage de lyse (Nesseria): 1,13 cm^2
- plage de lyse (Pseudomonas aeruginosa): 0 cm^2

Molecule: pyruvyl-poly-L-Lysine
- plage de lyse (Alcalescens Diaspar): 1,53cm^2
- plage de lyse (Klebsiella oxytoca): 1,33 cm^2
- plage de lyse (Candida albicans): 2,46 cm^2
- plage de lyse (Morganella Morganii): 0 cm^2
- plage de lyse (Enterobacter Hafniae): 2,27 cm^2
- plage de lyse (Proteus Mirabilis): 0 cm^2
- plage de lyse (Streptocoque B): 1,77cm^2 qqls colonies
- plage de lyse (Streptocoque D): 2,27 cm^2
- plage de lyse (Staphylococcus aureus): 2,13 cm^2
- plage de lyse (Escherichia coli): 2,09 cm^2
- concentration minimale inhibitrice [2]: < 1,25×10^4 M
- plage de lyse (Citrobacter koserii): 1,54 cm^2
- plage de lyse (Nesseria): 2,01cm^2
- plage de lyse (Pseudomonas aeruginosa): 1,32 cm^2
